Experimental data reported in patent US12678437B2, “Use of Cyclo-HisPro (CHP) for lowering blood pressure” (NOVMETAPHARMA CO., LTD., priority 2020, dated 2026).

How the values were obtained:
[1] = tested on: ⅚ nephrectomy rats; test: Prophylactic (pre-treatment) blood pressure control in ⅚ nephrectomy rats; assay type: in vivo; conditions: ⅚ nephrectomy SD rats; oral 35 mg/kg every other day for 8 weeks from 3 days before nephrectomy; tail artery; SHAM 127.8, disease control (Nx) 196.2
Description: 1-1. Construction of ⅚ Nephrectomy Model and Cyclo-HisPro Administration
The kidney is involved in water and sodium metabolism and is closely associated with the renin-angiotensin system, and thus, kidney disease itself, that is, glomerulitis or renal failure, may cause hypertension and play an important role in the development of essential hypertension. Chronic renal failure through nephrectomy in rats leads to continued progression of hypertension, uremia, proteinuria and glomerulosclerosis.
After pre-bringing 7-week-old SD rats purchased from Koatech Co., Ltd. for more than one week, the experimental group underwent surgery in two stages. […]
In order to reduce the error range of blood pressure measurement, the experimental animals were calibrated in the holder of a blood pressure meter (BP-2000 blood pressure analysis system, rat platform 2-channel, Visitech Systems, Apex, NC, USA) and then acclimatized in a heating chamber at 37° C. for 30 minutes, and the systolic blood pressure was measured at least 5 times in the tail artery to obtain the average value. […]

[2] = tested on: VE-cadherin; test: VE-cadherin protein expression (Western blot) in angiotensin II-treated HUVEC cells; assay type: cell-based, Human; conditions: HUVEC cells treated with Ang II and CHP, versus Ang II-treated control; corrected by β-actin
Procedure: (§1) Human umbilical vein endothelial cells (HUVEC, CRL-1730) were obtained from the American Type Culture Collection (ATCC), and EBM-2 basal medium and EGM-2 MV microvascular endothelial cell growth medium SingleQuots supplements were purchased from Lonza.
(§2) HUVEC cells were cultured in EBM-2 medium supplemented with EGM-2 MV SingleQuots supplements at 37° C. and 5% CO2 conditions. The medium was replaced every 2 to 3 days, and subculture was performed at 70 to 80% confluency.
(§3) HUVEC cells treated with angiotensin II and CHP were placed in 500 uL of RIPA buffer containing protease and phosphatase inhibitors, and then pulverized by using IKA's T10 homogenizer. […] The supernatant was collected and the protein concentration was measured by BCA quantitation, and the same amount of samples was separated by using the Bolt TM protein gel electrophoresis system, and then transferred to a nitrocellulose membrane. […] After washing 3 times for 10 minutes with TBST, the expression level was measured by reacting with ECL. The size of the appearing band was quantified by using the ImageJ program and corrected by dividing the size value of each band by the size value of the β-actin band. Statistical significance was analyzed by using Student's t-test statistical method with angiotensin II-treated control group (Ang II) (*p<0.05, […], ***p<0.0005).

[3] = tested on: AT2R (angiotensin II type 2 receptor); test: AT2R protein expression (Western blot) in angiotensin II-treated HUVEC cells; assay type: cell-based, Human; conditions: HUVEC cells treated with Ang II and CHP, versus Ang II-treated control; corrected by β-actin
Procedure: as §1, §2, §3

[4] = tested on: HMVEC-L cells; test: NO production (DAF-FM DA fluorescence) in HMVEC-L cells; assay type: cell-based, Human; conditions: CHP 0, 1, 10, 100 and 500 μM, serum-free medium, 2 hours, versus control not treated with CHP
Procedure: Human lung microvascular cells (HMVEC-L, CC2527) were obtained from the American Type Culture Collection (ATCC), and EBM-2 basal medium and EGM-2 MV microvascular endothelial cell growth medium SingleQuots supplements were purchased from Lonza.
HUVEC-L cells were cultured in EBM-2 medium supplemented with EGM-2 MV SingleQuots at 37° C. and 5% CO2 conditions. The medium was replaced every 2 to 3 days, and subculture was performed at 70 to 80% confluency.
5×10^4 cells were placed in a black 96-well plate, incubated for 24 hours and treated with CHP at concentrations of 0, 1, 10, 100 and 500 μM in serum-free medium, respectively, and cultured at 37° C. and 5% CO2 conditions for 2 hours. DAF-FM DA (DAF-FM Diacetate; Invitrogen) at a concentration of 5 μM was added and further incubated for 30 minutes, and it was washed once with PBS and observed with a fluorescence microscope at FITC wavelength. Photographs were taken at the same exposure time, and the fluorescence intensity of each cell was measured by using the ImageJ tool. Statistical significance was analyzed by one-way ANOVA statistical method, and comparison with the control group which was not treated with CHP was analyzed by Dunnett's test (****p<0.0001).

[5] = tested on: AT1R (angiotensin II type I receptor); test: AT1R protein expression (Western blot) in angiotensin II-treated HUVEC cells; assay type: cell-based, Human; conditions: HUVEC cells treated with Ang II and CHP, versus Ang II-treated control; corrected by β-actin
Procedure: as §1, §2, §3

[6] = tested on: ⅚ nephrectomy rats; test: Therapeutic (post-treatment) blood pressure control in ⅚ nephrectomy rats; assay type: in vivo; conditions: ⅚ nephrectomy SD rats; oral 35 mg/kg every other day for 6 weeks from 2 weeks after nephrectomy; tail artery; SHAM 127.8, disease control (Nx) 196.2
Procedure: After pre-bringing 7-week-old SD rats purchased from Koatech Co., Ltd. for more than one week, the experimental group underwent surgery in two stages. After general anesthesia, incision was performed along the midline of the abdomen to separate the left kidney from the adrenal glands and surrounding tissues, and after holding the renal blood vessel with forceps to prevent bleeding, the upper ⅓ and lower ⅓ of the left kidney were removed, and after 1 week, general anesthesia was performed again, and the entire right kidney was removed to complete a ⅚ nephrectomy model.
In order to reduce the error range of blood pressure measurement, the experimental animals were calibrated in the holder of a blood pressure meter (BP-2000 blood pressure analysis system, rat platform 2-channel, Visitech Systems, Apex, NC, USA) and then acclimatized in a heating chamber at 37° C. for 30 minutes, and the systolic blood pressure was measured at least 5 times in the tail artery to obtain the average value. The significance of the experimental results was verified by performing t-test for each group of the disease control group (Nx), the normal control group and the Cyclo-HisPro administration group, and there was a statistically significant difference (**p<0.005, ***p<0.0005, ****p<0.00005).
2-1. Construction of ⅚ Nephrectomy Model and Administration of Cyclo-HisPro […]

[7] = tested on: eNOS gene; test: eNOS gene expression (real-time PCR) in SVEC4-10 cells; assay type: cell-based, mouse; conditions: CHP 0, 10, 100 and 250 μM, serum-free medium, 2 hours, corrected by β-actin
Procedure: SVEC4-10 (CRL-2181), which is a mouse endothelial cell line, was obtained from the American Type Culture Collection (ATCC), and RPMI-1640 medium and FBS were purchased from Hyclone.
SVEC4-10 cells were cultured at 37° C. and 5% CO2 conditions by using RPMI-1640 medium containing 10% FBS and 1% penicillin/streptomycin, and subculture was performed every 2 days.
SVEC4-10 cells were placed in a 6-well plate at 5×10^5 cells and cultured for 24 hours. CHP was treated at concentrations of 0, 10, 100 and 250 μM in serum-free medium, respectively, and then it was cultured at 37° C. and 5% CO2 conditions for 2 hours. Thereafter, the medium was removed, and it was washed once with cold PBS and then immediately dissolved using NucleoZOL.
For RNA extraction, RNA was extracted according to the manufacturer's total RNA isolation protocol by using NucleoZOL (MACHEREY-NAGEL), and 1 μg of RNA was subjected to reverse transcription polymerase chain reaction to synthesize cDNA by using iScript cDNA synthesis kit (Bio-Rad). The synthesized cDNA was analyzed by real-time PCR using iQ SYBR Green Supermix (Bio-Rad) by using the primer set of the eNOS gene.
Each gene expression value was corrected by dividing by the expression value of β-actin, which is a housekeeping gene. Statistical significance was analyzed by the Student's t-test statistical method (*p<0.05).

O=C1N[C@@H](Cc2cnc[nH]2)C(=O)N2CCC[C@@H]12 [Cyclo-HisPro]
systolic blood pressure [1]: 156.7 mmHg | VE-cadherin protein expression [2]: statistically significantly increased | AT2R protein expression [3]: tended to increase | NO production (intensity of DAF-FM DA fluorescence) [4]: significantly increased | AT1R protein expression [5]: statistically significantly decreased | systolic blood pressure [6]: 171.6 mmHg | expression of the eNOS gene [7]: significantly increased
